Source: the supplement of paper PMC10307832

Assays:
Experiment in all cases: relative viability (nuclei count vs DMSO), 5 days (fraction); higher = more cells survive
Ruxolitinib + Alpelisib = compound: N#CC[C@H](C1CCCC1)n1cc(-c2ncnc3[nH]ccc23)cn1 [Ruxolitinib] + Cc1nc(NC(=O)N2CCC[C@H]2C(N)=O)sc1-c1ccnc(C(C)(C)C(F)(F)F)c1 [Alpelisib] (partner 2 µM)
Summary of the method: (§1)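 Relative viability equals treated-well nuclei counts divided by vehicle-well nuclei counts. Counts came from 4× images of lung cancer cell lines grown in 1536-well plates for 5 days after pin-tool dosing on the day after seeding. Dosing used one drug alone or a fixed anchor-drug dose plus five library-drug doses (not always all listed) in √10 steps, and values are medians of duplicate plates.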

Ruxolitinib + OSI-027 = compound: N#CC[C@H](C1CCCC1)n1cc(-c2ncnc3[nH]ccc23)cn1 [Ruxolitinib] + COc1cccc2cc(-c3nc([C@H]4CC[C@H](C(=O)O)CC4)n4ncnc(N)c34)[nH]c12 [OSI-027] (partner 0.5 µM)
Summary of the method: as §1

Ruxolitinib + Crizotinib = compound: N#CC[C@H](C1CCCC1)n1cc(-c2ncnc3[nH]ccc23)cn1 [Ruxolitinib] + C[C@@H](Oc1cc(-c2cnn(C3CCNCC3)c2)cnc1N)c1c(Cl)ccc(F)c1Cl [Crizotinib] (partner 1 µM)
Summary of the method: as §1

Ruxolitinib + Foretinib = compound: N#CC[C@H](C1CCCC1)n1cc(-c2ncnc3[nH]ccc23)cn1 [Ruxolitinib] + COc1cc2c(Oc3ccc(NC(=O)C4(C(=O)Nc5ccc(F)cc5)CC4)cc3F)ccnc2cc1OCCCN1CCOCC1 [Foretinib] (partner 0.25 µM)
Summary of the method: as §1

Cell Line	relative viability (Ruxolitinib + Alpelisib; first compound 0.08 µM)	relative viability (Ruxolitinib + Alpelisib; first compound 0.253 µM)	relative viability (Ruxolitinib + Alpelisib; first compound 0.8 µM)	relative viability (Ruxolitinib + Alpelisib; first compound 2.53 µM)	relative viability (Ruxolitinib + Alpelisib; first compound 8 µM)	relative viability (Ruxolitinib + OSI-027; first compound 0.08 µM)	relative viability (Ruxolitinib + OSI-027; first compound 0.253 µM)	relative viability (Ruxolitinib + OSI-027; first compound 0.8 µM)	relative viability (Ruxolitinib + OSI-027; first compound 2.53 µM)	relative viability (Ruxolitinib + OSI-027; first compound 8 µM)	relative viability (Ruxolitinib + Crizotinib; first compound 0.08 µM)	relative viability (Ruxolitinib + Crizotinib; first compound 0.253 µM)	relative viability (Ruxolitinib + Crizotinib; first compound 0.8 µM)	relative viability (Ruxolitinib + Crizotinib; first compound 2.53 µM)	relative viability (Ruxolitinib + Crizotinib; first compound 8 µM)	relative viability (Ruxolitinib + Foretinib; first compound 0.08 µM)	relative viability (Ruxolitinib + Foretinib; first compound 0.253 µM)	relative viability (Ruxolitinib + Foretinib; first compound 0.8 µM)	relative viability (Ruxolitinib + Foretinib; first compound 2.53 µM)	relative viability (Ruxolitinib + Foretinib; first compound 8 µM)
NCI-H322M	0.901	0.844	0.873	0.802	1.01	0.506	0.538	0.704	0.594	0.63	0.9	1.27	1.01	1.1	1.09	0.964	0.99	1.18	1.22	1.43
NCI-H358	0.787	0.913	0.867	0.65	0.554	0.417	0.654	0.754	0.406	0.565	0.677	0.577	0.686	0.512	0.417	0.531	0.692	0.638	0.619	0.558
NCI-H441	0.665	0.52	0.71	0.553	0.565	0.675	0.471	0.836	0.56	0.521	0.682	0.585	0.847	0.724	0.555	1.07	0.915	0.997	0.787	0.855
NCI-H460	0.567	0.389	0.567	0.398	0.306	0.686	0.575	0.721	0.583	0.615	0.985	1.02	1.01	0.803	0.447	1.02	0.999	1.1	0.917	0.843
NCI-H520		0.837	1.04	0.988	0.756	0.317		0.278	0.239	0.326		0.714	0.964	0.708	0.645	0.703		0.853	0.753	0.885
NCI-H596	0.521	0.567	0.559	0.531	0.547	0.826	0.699	0.841	0.69	0.758	0.994	0.98	1.19	0.919	0.912	0.907	0.848	0.888	0.947	0.804
NCI-H647	1.33	1.11	1.15	0.941	0.643	0.73	0.706	0.797	0.531	0.595	1.18	1.12	1.13	0.852	0.524	1.08	1.27	1.31	1.19	1.08
NCI-H650		1.33	1.23	0.964	0.667		0.497	0.618	0.502	0.341		0.77	0.846	0.644	0.54		1	1.14	0.917	0.678
